Data: PMC6044741 (ACS Omega, 2018)
Entries after “also recorded” stand apart in the source; their conditions may differ.

Test system: not given
Assay: not given
Conditions: listed 15.11.2017 in the ChEMBL; cited from earlier work
For `CC(C)CN(Cc1ccc(F)cc1)S(=O)(=O)c1ccc(NC2CCN(S(C)(=O)=O)CC2)nc1` [Compound 3QQ, N-(4-fluorobenzyl)-N-(2-methylpropyl)-6-{[1-(methylsulfonyl)piperidin-4-yl]amino}pyridine-3-sulfonamide], the “log P” value is given as 2.3.

Molecular target: T1, human RORγ hybrids of both isoforms 1 and 2 (Homo sapiens, UniProt P51449)
T1 sequence (P51449 259-518): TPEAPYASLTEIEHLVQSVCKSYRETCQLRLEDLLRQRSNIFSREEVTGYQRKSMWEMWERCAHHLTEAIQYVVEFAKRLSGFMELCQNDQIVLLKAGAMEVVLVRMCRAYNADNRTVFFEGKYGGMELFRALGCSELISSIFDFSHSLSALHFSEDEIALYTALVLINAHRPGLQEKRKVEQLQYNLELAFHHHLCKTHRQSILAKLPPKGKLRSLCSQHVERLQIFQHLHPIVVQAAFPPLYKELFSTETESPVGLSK
Assay: Human RAR-related Orphan Receptor Gamma Reporter Assay System
Type: cell-based
Conditions: not given
`CC1(c2cccc([N+](=O)[O-])c2)Nc2ccccc2C(=O)N1N=Cc1cc(Br)cc(Br)c1O` (stereo not drawn) [Compound 34] gave an IC50 of 10 µM.

Same assay, conditions: result in words
For `Cc1ccc(-c2cc(C(=O)N3CCN(c4cccc(C(F)(F)F)c4)CC3)c3ccccc3n2)o1` [Compound 13], the “RORγt activity in experimental testing (active / inactive)” value (“RORγt activity … (active / inactive)” below) was “less active”.
For `O=C(COC(=O)c1cccc(N2C(=O)C3C4c5ccccc5C(c5ccccc54)C3C2=O)c1)c1ccccc1` (stereo not drawn) [Compound 18], the “RORγt activity … (active / inactive)” value was “activity”.
For `O=C(Oc1ccc(N2C(=O)C3C4c5ccccc5C(c5ccccc54)C3C2=O)cc1)c1cccc([N+](=O)[O-])c1` (stereo not drawn) [Compound 20], the “RORγt activity … (active / inactive)” value was “inactive”.
In the case of `Cc1cc(C=C2C(=O)NC(=S)N(c3cccc(Br)c3)C2=O)c(C)n1-c1ccc(S(N)(=O)=O)cc1` [Compound 2], the “RORγt activity … (active / inactive)” value is reported as “active”.
With `CC1(c2cccc([N+](=O)[O-])c2)Nc2ccccc2C(=O)N1N=Cc1cc(Br)cc(Br)c1O` (stereo not drawn) [Compound 34] the “RORγt activity … (active / inactive)” value was “not a particularly potent inverse agonist”.
With `O=C(COC(=O)c1cccc(N2C(=O)C3C4c5ccccc5C(c5ccccc54)C3C2=O)c1)c1ccc(Cl)cc1` (stereo not drawn) [Compound 19] the “RORγt activity … (active / inactive)” value was “activity”.
In the case of `Cc1ccccc1-c1cc(C(=O)N2CCN(c3cccc(C(F)(F)F)c3)CC2)c2ccccc2n1` [Compound 12], the “RORγt activity … (active / inactive)” value is reported as “less active”.
With `O=C(O)c1ccc(NC(=O)c2cccc(N3C(=O)C4C5c6ccccc6C(c6ccccc65)C4C3=O)c2)cc1` (stereo not drawn) [Compound 21] the “RORγt activity … (active / inactive)” value was “inactive”.
For `Cc1ccc(-c2cc(C(=O)N3CCN(c4ccc(F)cc4)CC3)c3ccccc3n2)cc1` [Compound 17], the “RORγt activity … (active / inactive)” value was “either insoluble or inactive; also recorded: inactivity”.
For `Cc1ccccc1-c1cc(C(=O)N2CCN(c3ccc([N+](=O)[O-])cc3)CC2)c2ccccc2n1` [Compound 16], the “RORγt activity … (active / inactive)” value was “either insoluble or inactive”.
